Reference: US20200046619A1, “Deodorizing Composition Comprising Zinc Neodecanoate” (GIVAUDAN SA, priority 2016, published 2020)

Legend:
[1] = White marks: visible solid residue on black cloth after aerosol spraying; assay type: physicochemical; details: approximately 3 g aerosol (4% zinc neodecanoate, 12% cyclomethicone, 84% propellant) dispensed; compared with zinc ricinoleate and aluminium chlorohydrate aerosols
Method: Aerosols were prepared using the following three test formulations, respectively: • 4% zinc neodecanoate, 12% cyclomethicone, 84% propellant • 4% zinc ricinoleate, 12% cyclomethicone, 84% propellant • 10% aluminium chlorohydrate, 0.8% disteardimonium hectorite, 12% cyclomethicone, 76.2% propellant (propellant=isobutane/propane mix)
Several card templates were prepared where a large X-shaped hole was present in each template. Each template was then placed over a black piece of cloth. The aerosols were shaken well, and then approximately 3 g of one of the three aerosols was dispensed over each template hole. Several minutes were allowed for any propellant to evaporate and the presence of any visible solid residues was noted.

[2] = Solubility test of zinc salts in model aerosol base formulation; assay type: physicochemical; details: 4% zinc salt, 12% cyclomethicone, 84% pentane; agitated several hours at room temperature, stood overnight
From the text: The solubility of several zinc salts was explored using the following model aerosol base formulation: • 4% zinc salt • 12% cyclomethicone • 84% pentane
(Pentane was used as a surrogate for isobutane/propane mix as it is easier to handle in a laboratory.)
Each salt and aerosol formulation was placed in a sealed glass vial that was agitated for several hours at room temperature. The resulting suspensions/solutions were allowed to stand overnight and any remaining solid matter present was noted.

[3] = tested on: subject's axilla malodour; assay: Sensory test comparing zinc neodecanoate and zinc ricinoleate: perceived malodour intensity of axillae rated by trained panel; assay type: in vivo, human; details: for perceived malodour intensity: 0-100 line scale, 24 hours after application of 1.0 g aerosol (4% zinc salt, 12% cyclomethicone, 84% propellant) to axilla, 10 male subjects
Method: Aerosols were prepared using the following two test formulations, respectively: • 4% zinc neodecanoate, 12% cyclomethicone, 84% propellant • 4% zinc ricinoleate, 12% cyclomethicone, 84% propellant (propellant=isobutane/propane mix)
5 days prior to testing, the male subjects substituted their normal body wash with an unperfumed product (Sanex 0% Bodywash) and were asked to only use a specific deodorant supplied (Lynx Attract for Him).
On the morning before the test, the male subjects were asked to shower using an unperfumed shower gel provided and not use any antiperspirant product or apply any other fragranced products.
Subjects reported to a panel suite in the morning in two groups for test product application.
The administrator applied 1.0 g of each product to each subject's axilla. Each subject wore both of the test formulations (one on each axilla region). The manner in which each test formulation was applied (left or right axilla) was randomised. Each of a subject's axilla was then coded with a random code number.
The subjects were asked not to shower until after the test had been completed the next day. The subjects were also provided with a list of rules, by which they had to abide for the duration of the test. The rules included no swimming and no gym activity between test formulation application and assessment.
The subjects' axillae were thereafter tested by sensory panellists. The members of the sensory panels had been selected on a basis of their olfactory sensory acuity and had thereafter received training for a period of 4-6 months. […]
The sensory panellists were asked to rate the perceived malodour intensity for each of the subject's axilla using a 0-100 line scale. The order of samples assessed was pre-determined using a balanced randomisation. The axillae were assessed in a sequential monadic way. […]
The subjects were separated into two groups to be assessed by the panellists and each group was assessed by 22 panellists.
The data was analysed using an analysis of variance and multiple comparison test with a confidence level of 95%.

Substance | visible solid residue on black cloth [1] | remaining solid matter present (solubility) [2] | perceived malodour intensity [3] | malodour intensity compared with underarms treated with zinc ricinoleate ([3]; analysis of variance and multiple comparison test, confidence level 95%, 24 hours after application)
zinc neodecanoate | did not leave a powdered residue | without any solid present | 12.1 (+/−0.8) | significantly lower malodour intensity
zinc ricinoleate [reference compound] | – | – | 14.0 (+/−0.8) | –
